We go through four compounds from patent US4183848A, “Analgesic polypeptide” (American Home Products Corporation, priority 1977, dated 1980).

Where a SMILES comes first, the peptide text is derived from it. [ ]: non-standard residue; d: D form. Aib = CC(C)(N)C(=O)O

One experiment has as its system rat tail flick test. Kind of experiment: rat tail flick test (method of D-Amour and Smith), analgesic activity. The experiment is classed as in vivo. The source says: The representative polypeptide of this invention Tyr-D-Ala-Gly-Phe-2-MeAla-NH2, gave the following results in the reference standard rat tail flick test: […]
For a further experiment, the system named is opiate receptor. The settings on record: brain homogenates; cited from earlier work.
For experiment [1] the following is noted: peripheral administration; cited from earlier work.
The next experiment concerns rats. The settings on record: injection in the brain ventricle in rats; fully reversible by naloxone; cited from earlier work.
A further experiment deals with guinea pig ileum. The settings on record: cited from earlier work.
Another experiment has as its system mouse vas deferens. The settings on record: cited from earlier work.
The conditions of experiment [2]: intracerebroventricular administration; cited from earlier work.

With `CC(=O)O.C[C@@H](NC(=O)[C@@H](N)Cc1ccc(O)cc1)C(=O)NCC(=O)N[C@@H](Cc1ccccc1)C(=O)NC(C)(C)C(N)=O` [Tyr-D-Ala-Gly-Phe-2-MeAla-NH2, L-Tyrosyl-D-Alanylglycyl-L-Phenylalanyl-2-Methylalaninamide acetate] (H-Y[dA]GF[Aib]-NH2), the “No. showing analgesia/No. tested” value in the experiment on rat tail flick test (intravenous 1.0 milligram/kilogram, 15 minutes after administration) was 6/6; in the experiment with rat tail flick test (intravenous 1.0 milligram/kilogram, 30 minutes after administration), 4/6; with rat tail flick test (intravenous 1.0 milligram/kilogram, 60 minutes after administration), 3/6; in the experiment with rat tail flick test (intravenous 2.5 milligram/kilogram, 15 minutes after administration) it was 5/6; with rat tail flick test (intravenous 2.5 milligram/kilogram, 30 minutes after administration) it was 5/6; in the experiment with rat tail flick test (intravenous 2.5 milligram/kilogram, 60 minutes after administration), 2/6. Further, the “No. showing analgesia/No. tested” value in the experiment on rat tail flick test (intravenous 5.0 milligram/kilogram, 15 minutes after administration) is 5/5; in the experiment on rat tail flick test (intravenous 5.0 milligram/kilogram, 30 minutes after administration), 4/5; in the experiment with rat tail flick test (intravenous 5.0 milligram/kilogram, 60 minutes after administration) it was 2/5; in the experiment on rat tail flick test (intravenous .5 milligram/kilogram, 15 minutes after administration), 0/6; with rat tail flick test (intravenous .5 milligram/kilogram, 30 minutes after administration), 1/6; with rat tail flick test (intravenous .5 milligram/kilogram, 60 minutes after administration), 1/6. The “No. showing analgesia/No. tested” value is 3/6 in the experiment on rat tail flick test (subcutaneous 5.0 milligram/kilogram, 30 minutes after administration); 1/6 in the experiment with rat tail flick test (subcutaneous 5.0 milligram/kilogram, 60 minutes after administration); 2/6 in the experiment with rat tail flick test (subcutaneous 5.0 milligram/kilogram, 90 minutes after administration); 0/6 in the experiment with rat tail flick test (subcutaneous 5.0 milligram/kilogram, 120 minutes after administration); 6/6 with rat tail flick test (subcutaneous 10.0 milligram/kilogram, 30 minutes after administration); 5/6 in the experiment with rat tail flick test (subcutaneous 10.0 milligram/kilogram, 60 minutes after administration). In addition, the “No. showing analgesia/No. tested” value with rat tail flick test (subcutaneous 10.0 milligram/kilogram, 90 minutes after administration) is listed as 2/6; with rat tail flick test (subcutaneous 10.0 milligram/kilogram, 120 minutes after administration), 1/6.

“H-Tyr-Gly-Gly-Phe-Leu-OH [leucine-enkephalin]”: in the experiment on opiate receptor, the “inhibition of stereospecific receptor binding of 3H-naloxone” value is recorded as “inhibit”. Besides, the “activity when administered peripherally” value in experiment [1] was “inactive”. The analgesia result with rats is recorded as “profound analgesia”. Moreover, the “block of electrically evoked contractions” value in the experiment on guinea pig ileum and with mouse vas deferens was “mimic the ability of morphine to block electrically evoked contractions” throughout.

For the compound “H-Tyr-Gly-Gly-Phe-Met-OH [methionine-enkephalin]”, the “inhibition of stereospecific receptor binding of 3H-naloxone” value with opiate receptor is on record as “inhibit”. Further, in experiment [1], the “activity when administered peripherally” value was “inactive”. In addition, the analgesia result in the experiment with rats is listed as “profound analgesia”. Moreover, the “block of electrically evoked contractions” value in the experiment on guinea pig ileum and in the experiment on mouse vas deferens was “mimic the ability of morphine to block electrically evoked contractions” throughout.

In the case of Tyr-D-Ala-Gly-Phe-D-Leu, the “activity when administered intracerebroventricularly” value in experiment [2] is reported as “activity”.
